From US20250171459A1, “2-METHYL-4',5'-DIHYDROSPIRO[PIPERIDINE-4,7'-THIENO[2,3-C]PYRAN] DERIVATIVES AS INHIBITORS OF APOL1 AND METHODS OF USING SAME” (Vertex Pharmaceuticals Incorporated, priority 2022, published 2025)

Target: T1, APOL1 (Homo sapiens, UniProt O14791)
T1 sequence (O14791 1-398 S342G/I384M): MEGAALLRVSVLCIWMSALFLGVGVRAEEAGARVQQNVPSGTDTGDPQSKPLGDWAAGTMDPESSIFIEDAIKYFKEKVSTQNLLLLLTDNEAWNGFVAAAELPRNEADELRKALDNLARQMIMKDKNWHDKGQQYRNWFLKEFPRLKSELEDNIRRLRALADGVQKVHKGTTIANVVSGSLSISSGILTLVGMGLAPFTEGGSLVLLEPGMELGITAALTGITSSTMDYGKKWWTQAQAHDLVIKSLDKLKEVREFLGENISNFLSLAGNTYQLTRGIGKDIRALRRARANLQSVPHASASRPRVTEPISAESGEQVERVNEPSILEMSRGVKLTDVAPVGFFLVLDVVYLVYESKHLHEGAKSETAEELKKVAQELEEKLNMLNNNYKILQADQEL
Assay: MultiTox-Fluor Multiplex Cytotoxicity Assay in tet-inducible APOL1 T-REx-HEK293 cells (cell rescue, ratio of dead to live cells)
Format: cell-based
Conditions: tet-inducible transgenic APOL1 T-REx-HEK293 cell lines, 50 ng/mL tet, 24 hours; read-out: IP50 (i.e., IC50 for cell proliferation)
How it was run: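 T-REx-HEK293 cells with tet-inducible APOL1 were treated with compound (10 μM top, 10-point 3-fold dilution, duplicate) plus 50 ng/mL tetracycline for 24 h at 37° C, in DMEM with 2% tet-free FBS. MultiTox-Fluor protease signals gave a dead/live ratio, normalized to no tet (100% viability) and tet alone (0%).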

CCc1cc2c(s1)CCOC21CCN(Cc2cn(CCC(=O)NCC(C)O)nn2)CC1 (centres unmarked) [Compound 1102] showed an IC50 of 500 to 1000 nM.

Compound CCc1cc2c(s1)CCOC21CCN(Cc2cn(CC(O)c3cccnc3)nn2)CC1 (centres unmarked) [Compound 1103] has an IC50 of 500 to 1000 nM.

With CCc1cc2c(s1)CCOC21CCN(Cc2cn(CCN3CCC(O)C3)nn2)CC1 (centres unmarked) [Compound 1104] the IC50 was 500 to 1000 nM.

With CCc1cc2c(s1)CCOC21CCN(Cc2cn(C3CC(F)(F)C3)nn2)CC1 [Compound 1105] the IC50 was 500 to 1000 nM.

With CCc1cc2c(s1)CCOC21CCN(Cc2cn(Cc3cc(C(N)=O)co3)nn2)CC1 [Compound 1106] the IC50 was 500 to 1000 nM.

In the case of CCc1cc2c(s1)CCOC21CCN(Cc2cn(CC(=O)NC)nn2)CC1 [Compound 1107], the IC50 is reported as 500 to 1000 nM.

CCc1cc2c(s1)CCOC21CCN(Cc2cn(Cc3cc(COC)[nH]n3)nn2)CC1 [Compound 1108] showed an IC50 of 500 to 1000 nM.

Compound CCc1cc2c(s1)CCOC21CCN(Cc2cn(CCc3noc(C)n3)nn2)CC1 [Compound 1109] has an IC50 of 500 to 1000 nM.

CCc1cc2c(s1)CCOC21CCN(Cc2cn(C[C@H]3CC[C@@H](CO)O3)nn2)CC1 [Compound 1110] showed an IC50 of 500 to 1000 nM.

CCc1cc2c(s1)CCOC21CCN(Cc2cn(CCC(=O)NCCO)nn2)CC1 [Compound 1111] was tested, and the IC50 was 500 to 1000 nM.

With CCc1cc2c(s1)CCOC21CCN(Cc2cn(C3CC3)nn2)CC1 [Compound 1112] the IC50 was 500 to 1000 nM.

CCc1cc2c(s1)CCOC21CCN(Cc2cn(CC3CCOCC3)nn2)CC1 [Compound 1113] showed an IC50 of 500 to 1000 nM.

Compound CCc1cc2c(s1)CCOC21CCN(Cc2cn(CCC(N)=O)nn2)CC1 [Compound 1114] has an IC50 of 500 to 1000 nM.

CCc1cc2c(s1)CCOC21CCN(Cc2cn(CCCN3CC(O)C3)nn2)CC1 [Compound 1115] was tested, and the IC50 was 500 to 1000 nM.

Work on CCc1cc2c(s1)CCOC21CCN(Cc2cn(C3CCN(C(C)=O)CC3)nn2)CC1 [Compound 1116] yielded an IC50 of 500 to 1000 nM.

Compound CCc1cc2c(s1)CCOC21CCN(Cc2cn(C(C)C(=O)NCCO)nn2)CC1 (centres unmarked) [Compound 1117] has an IC50 of 500 to 1000 nM.

CCc1cc2c(s1)CCOC21CCN(Cc2cn(CC3CNC(=O)O3)nn2)CC1 (centres unmarked) [Compound 1118] was tested, and the IC50 was 500 to 1000 nM.

CCc1cc2c(s1)CCOC21CCN(Cc2cn(C(C)C(=O)NCC(C)O)nn2)CC1 (centres unmarked) [Compound 1119] gave an IC50 of 500 to 1000 nM.

CCc1cc2c(s1)CCOC21CCN(Cc2cn(CCC(=O)NC)nn2)CC1 [Compound 1120] was tested, and the IC50 was 500 to 1000 nM.

In the case of CCc1cc2c(s1)CCOC21CCN(Cc2cn(C(C)C(=O)NCCC(F)(F)F)nn2)CC1 (centres unmarked) [Compound 1121], the IC50 is reported as 500 to 1000 nM.

CCc1cc2c(s1)CCOC21CCN(Cc2cn(CC(=O)NC3COC3)nn2)CC1 [Compound 1122] gave an IC50 of 500 to 1000 nM.

CCc1cc2c(s1)CCOC21CCN(Cc2cn(C3CCC3(F)F)nn2)CC1 (centres unmarked) [Compound 1123] gave an IC50 of 500 to 1000 nM.

In the case of CCc1cc2c(s1)CCOC21CCN(Cc2cn(Cc3ccc(=O)[nH]c3)nn2)CC1 [Compound 1124], the IC50 is reported as 500 to 1000 nM.

In the case of CCc1cc2c(s1)CCOC21CCN(Cc2cn(Cc3ccc[nH]c3=O)nn2)CC1 [Compound 1125], the IC50 is reported as 500 to 1000 nM.

For CCc1cc2c(s1)CCOC21CCN(Cc2cc3nc(OC)ccc3[nH]2)CC1 [Compound 1126, 2′-ethyl-1-((5-methoxy-1H-pyrrolo[3,2-b]pyridin-2-yl)methyl)-6′,7′-dihydrospiro[piperidine-4,4′-thieno[3,2-c]pyran]], the IC50 was < 100 nM.

In the case of CCc1cc2c(s1)CCOC21CCN(Cc2cnn(CCS(=O)(=O)NC)c2)CC1 [Compound 1127], the IC50 is reported as < 100 nM.

For CCc1cc2c(s1)CCOC21CCN(Cc2ccc3[nH]ncc3c2)CC1 [Compound 1128], the IC50 was < 100 nM.

Compound CCc1cc2c(s1)CCOC21CCN(Cc2ccc(NS(C)(=O)=O)cc2)CC1 [Compound 1129] has an IC50 of 100 to 500 nM.

With CCc1cc2c(s1)CCOC21CCN(Cc2cnn(CCS(C)(=O)=O)c2)CC1 [Compound 1130] the IC50 was 100 to 500 nM.

Work on CCc1cc2c(s1)CCOC21CCN(Cc2cnn(CCS(=O)(=O)N(C)C)c2)CC1 [Compound 1131] yielded an IC50 of 100 to 500 nM.

CCc1cc2c(s1)CCOC21CCN(Cc2cnc(NC(=O)COCCOC)s2)CC1 [Compound 1132] gave an IC50 of 100 to 500 nM.

CCc1cc2c(s1)CCOC21CCN(Cc2cn[nH]c2)CC1 [Compound 1133] gave an IC50 of 100 to 500 nM.
